“And” between values parts separate entries of the source, which are not always exact repeats. Identical values can stand only once. Inconclusive results and toxic doses are left out. No stated cut-off is given here; in the data, active means T/C of 150% or more; inactive means T/C below 125%.
Test system: L1210 leukemia ip in BDF1 mice, survival T/C
Assay: NCI In Vivo Anticancer Drug Screen. Data for tumor model L1210 Leukemia (intraperitoneal) in B6D2F1 (BDF1) mice
Settings: endpoint: mean survival time, higher = longer survival
Method in brief: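 Value reflects the ratio of survival in compound-treated mice to survival in vehicle-treated controls, with both groups carrying the same transplanted tumor.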

[1] = dose: 100.0 mg/kg/injection, schedule: Q04DX003 (ip), vehicle: saline with Tween-80

Measured: T/C

CC1(C)OCC(N)(CO)CO1
inactive: dose: 100.0 mg/kg/injection, schedule: Q01DX005 (ip), vehicle: water 105 % of control | dose: 100.0 mg/kg/injection, schedule: Q04DX003 (ip), vehicle: water 109 % of control | dose: 200.0 mg/kg/injection, schedule: Q01DX005 (ip), vehicle: water 107 % of control | dose: 200.0 mg/kg/injection, schedule: Q04DX003 (ip), vehicle: water 108 % of control | dose: 400.0 mg/kg/injection, schedule: Q01DX005 (ip), vehicle: water 97 % of control | dose: 400.0 mg/kg/injection, schedule: Q04DX003 (ip), vehicle: water 98 % of control

CCN(CC)CCCC(C)Nc1ncnc2ncc3c(c12)CCCC3 (stereo not drawn)
inactive: dose: 100.0 mg/kg/injection, schedule: Q04DX002 (ip), vehicle: saline 102 % of control | dose: 200.0 mg/kg/injection, schedule: Q04DX002 (ip), vehicle: saline 98 % of control

CC(=O)OCC1OC(n2cnc3c(=S)nc(N)[nH]c32)CC1OC(C)=O (stereo not drawn)
inactive: dose: 2.5 mg/kg/injection, schedule: Q01DX002 (ip), vehicle: Klucel (hydroxypropylcellulose) (HPC) 118 % of control | dose: 5.0 mg/kg/injection, schedule: Q04DX003 (ip), vehicle: Klucel (hydroxypropylcellulose) (HPC) 117 % of control | dose: 10.0 mg/kg/injection, schedule: Q01DX002 (ip), vehicle: Klucel (hydroxypropylcellulose) (HPC) 119 % of control | dose: 10.0 mg/kg/injection, schedule: Q04DX003 (ip), vehicle: Klucel (hydroxypropylcellulose) (HPC) 121 % of control | dose: 20.0 mg/kg/injection, schedule: Q01DX002 (ip), vehicle: Klucel (hydroxypropylcellulose) (HPC) 123 % of control

COc1ccc(NC(=O)Nc2cc([N+](=O)[O-])ccc2C)c(OC)c1
inactive: dose: 100.0 mg/kg/injection, schedule: Q04DX002 (ip), vehicle: Klucel (hydroxypropylcellulose) (HPC) 92 % of control | dose: 200.0 mg/kg/injection, schedule: Q04DX002 (ip), vehicle: Klucel (hydroxypropylcellulose) (HPC) 108 % of control | dose: 400.0 mg/kg/injection, schedule: Q04DX002 (ip), vehicle: Klucel (hydroxypropylcellulose) (HPC) 92 % of control

NCC(c1ccccc1)C(Cc1ccccc1)[N+](=O)[O-] (stereo not drawn)
inactive: dose: 75.0 mg/kg/injection, schedule: Q01DX001 (ip), vehicle: other 115 % of control | dose: 150.0 mg/kg/injection, schedule: Q01DX001 (ip), vehicle: other 104 % of control

CC(C)(Br)C(=O)C(C)(C)Br
inactive: dose: 75.0 mg/kg/injection, schedule: Q01DX001 (ip), vehicle: saline 93 % of control | dose: 100.0 mg/kg/injection, schedule: Q01DX009 (ip), vehicle: Klucel (hydroxypropylcellulose) (HPC) 103 % of control | dose: 150.0 mg/kg/injection, schedule: Q01DX001 (ip), vehicle: saline 96 % of control | dose: 200.0 mg/kg/injection, schedule: Q01DX009 (ip), vehicle: Klucel (hydroxypropylcellulose) (HPC) 100 % of control | dose: 300.0 mg/kg/injection, schedule: Q01DX001 (ip), vehicle: saline 92 % of control | dose: 400.0 mg/kg/injection, schedule: Q01DX009 (ip), vehicle: Klucel (hydroxypropylcellulose) (HPC) 91 % of control

COc1ccc(N(N=O)C(C)=O)cc1
inactive: dose: 5.0 mg/kg/injection, schedule: Q01DX001 (ip), vehicle: saline 95 % of control | dose: 10.0 mg/kg/injection, schedule: Q01DX001 (ip), vehicle: saline 97 % of control | dose: 20.0 mg/kg/injection, schedule: Q01DX001 (ip), vehicle: saline 106 % of control | dose: 40.0 mg/kg/injection, schedule: Q01DX001 (ip), vehicle: saline 106 % of control

Cc1ccc(C(=O)CCCCCCCCC(=O)c2ccc(C)cc2)cc1
inactive: dose: 50.0 mg/kg/injection, schedule: Q01DX009 (ip), vehicle: saline with Tween-80 97 % of control | dose: 100.0 mg/kg/injection, schedule: Q01DX009 (ip), vehicle: saline with Tween-80 89 % of control | dose: 200.0 mg/kg/injection, schedule: Q01DX009 (ip), vehicle: saline with Tween-80 89 % of control

N/N=C(\c1ccccc1)c1ccc(Cl)cc1
inactive: dose: 100.0 mg/kg/injection, schedule: Q01DX001 (ip), vehicle: carboxymethylcellulose (CMC) 96 % of control | dose: 200.0 mg/kg/injection, schedule: Q01DX001 (ip), vehicle: carboxymethylcellulose (CMC) 87 % of control | dose: 400.0 mg/kg/injection, schedule: Q01DX001 (ip), vehicle: carboxymethylcellulose (CMC) 95 % of control

COc1ccc(CCO)cc1
inactive: [1] 92 % of control | dose: 200.0 mg/kg/injection, schedule: Q04DX003 (ip), vehicle: saline with Tween-80 101 % of control | dose: 400.0 mg/kg/injection, schedule: Q04DX003 (ip), vehicle: saline with Tween-80 95 % of control

CCc1cccc(OC/C=C(\C)CCC2OC2(C)CC)c1 (stereo not drawn)
inactive: dose: 100.0 mg/kg/injection, schedule: Q04DX002 (ip), vehicle: saline with Tween-80 100 % of control | dose: 200.0 mg/kg/injection, schedule: Q04DX002 (ip), vehicle: saline with Tween-80 100 % of control | dose: 400.0 mg/kg/injection, schedule: Q04DX002 (ip), vehicle: saline with Tween-80 94 % of control

C=CC[As](=O)(O)O
inactive: dose: 25.0 mg/kg/injection, schedule: Q04DX003 (ip), vehicle: saline with Tween-80 98 % of control | dose: 50.0 mg/kg/injection, schedule: Q04DX003 (ip), vehicle: saline with Tween-80 104 % of control | [1] 92 % of control

CCN(CC)C(=O)c1ccc(C(Cl)(Cl)Cl)cc1
inactive: dose: 75.0 mg/kg/injection, schedule: Q01DX009 (ip), vehicle: saline sonified 91 % of control | dose: 100.0 mg/kg/injection, schedule: Q04DX003 (ip), vehicle: Klucel (hydroxypropylcellulose) (HPC) 87 % of control | dose: 150.0 mg/kg/injection, schedule: Q01DX009 (ip), vehicle: saline sonified 91 % of control | dose: 200.0 mg/kg/injection, schedule: Q04DX003 (ip), vehicle: Klucel (hydroxypropylcellulose) (HPC) 89 % of control | dose: 300.0 mg/kg/injection, schedule: Q01DX009 (ip), vehicle: saline sonified 87 % of control | dose: 400.0 mg/kg/injection, schedule: Q04DX003 (ip), vehicle: Klucel (hydroxypropylcellulose) (HPC) 91 % of control

BrC1(C2(Br)N(c3ccccc3)CCN2c2ccccc2)N(c2ccccc2)CCN1c1ccccc1
inactive: dose: 7.5 mg/kg/injection, schedule: Q01DX001 (ip), vehicle: saline 105 % of control | dose: 7.5 mg/kg/injection, schedule: Q04DX003 (ip), vehicle: saline 108 % of control | dose: 15.0 mg/kg/injection, schedule: Q01DX001 (ip), vehicle: saline 105 % of control | dose: 15.0 mg/kg/injection, schedule: Q04DX003 (ip), vehicle: saline 106 % of control | dose: 30.0 mg/kg/injection, schedule: Q01DX001 (ip), vehicle: saline 112 % of control | dose: 30.0 mg/kg/injection, schedule: Q04DX003 (ip), vehicle: saline 100 % of control

CC(=O)OCC1CCC(NC(=O)NCCF)CC1 (stereo not drawn)
inactive: dose: 50.0 mg/kg/injection, schedule: Q01DX001 (ip), vehicle: saline with Tween-80 101 % of control | dose: 100.0 mg/kg/injection, schedule: Q01DX001 (ip), vehicle: saline with Tween-80 106 % of control | dose: 200.0 mg/kg/injection, schedule: Q01DX001 (ip), vehicle: saline with Tween-80 95 % of control

CN(N=O)C(=O)NCCNc1ncnc2nc[nH]c12
inactive: dose: 43.0 mg/kg/injection, schedule: Q01DX Z (ip), vehicle: carboxymethylcellulose (CMC) 86 % of control | dose: 87.0 mg/kg/injection, schedule: Q01DX Z (ip), vehicle: carboxymethylcellulose (CMC) 93 % of control | dose: 175.0 mg/kg/injection, schedule: Q01DX Z (ip), vehicle: carboxymethylcellulose (CMC) 94 % of control | dose: 350.0 mg/kg/injection, schedule: Q01DX Z (ip), vehicle: carboxymethylcellulose (CMC) 114 % of control

Cc1ccc(C(c2ccc(C)c(C)c2)C(O)C(O)C(O)CO)cc1C (stereo not drawn)
inactive: dose: 100.0 mg/kg/injection, schedule: Q01DX001 (ip), vehicle: saline 94 % of control and 100 % of control | dose: 200.0 mg/kg/injection, schedule: Q01DX001 (ip), vehicle: saline 102 % of control and 96 % of control | dose: 400.0 mg/kg/injection, schedule: Q01DX001 (ip), vehicle: saline 97 % of control and 96 % of control

C/C(=N\NC(=S)Nc1cc(I)ccc1C)c1cc([N+](=O)[O-])c(O)cc1O
inactive: dose: 12.5 mg/kg/injection, schedule: Q04DX002 (ip), vehicle: Klucel (hydroxypropylcellulose) (HPC) 102 % of control | dose: 25.0 mg/kg/injection, schedule: Q04DX002 (ip), vehicle: Klucel (hydroxypropylcellulose) (HPC) 97 % of control | dose: 50.0 mg/kg/injection, schedule: Q04DX002 (ip), vehicle: Klucel (hydroxypropylcellulose) (HPC) 105 % of control

— PubChem BioAssay AID248 (DTP/NCI, 2004)
